Measurements: ChEMBL document CHEMBL1137408, “Acylguanidines as small-molecule beta-secretase inhibitors” (J Med Chem, 2006)

Assays:
[1] = test system: H4; assay: Decrease in beta CTF level in wild type H4 cells by RICA; format: functional, cell-based; settings: Homo sapiens
[2] = test system: H4; assay: Decrease in beta amyloid protein level in wild type H4 cells by RICA; format: functional, cell-based; settings: Homo sapiens
[3] = molecular target: Pepsin A (Homo sapiens, UniProt P0DJD9); assay: Inhibition of pepsin by FRET based peptide cleavage assay
Pepsin A, sequence (P0DJD9 whole entry): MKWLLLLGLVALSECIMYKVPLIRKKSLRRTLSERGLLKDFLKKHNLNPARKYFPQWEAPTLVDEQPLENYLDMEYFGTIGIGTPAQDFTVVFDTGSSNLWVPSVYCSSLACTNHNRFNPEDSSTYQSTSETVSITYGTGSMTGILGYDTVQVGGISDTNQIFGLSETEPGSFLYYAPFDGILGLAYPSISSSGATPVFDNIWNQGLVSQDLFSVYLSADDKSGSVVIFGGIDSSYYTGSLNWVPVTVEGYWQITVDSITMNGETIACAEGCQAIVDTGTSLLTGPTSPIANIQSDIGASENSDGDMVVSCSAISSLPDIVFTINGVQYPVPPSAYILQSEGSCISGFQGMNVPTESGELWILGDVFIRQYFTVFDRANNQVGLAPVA

[4] = test system: CHO; assay: Decrease in beta amyloid protein level in CHO cells expressing human APP by ELISA; format: functional; settings: Cricetulus griseus, read-out: ED50 (the source's name)
[5] = organism: Homo sapiens; assay: Selectivity for BACE1 over Cathepsin D
[6] = molecular target: Beta-secretase 1 (Homo sapiens, UniProt P56817); assay: Inhibition of human recombinant BACE1 by FRET based peptide cleavage assay
Beta-secretase 1, sequence (P56817 whole entry): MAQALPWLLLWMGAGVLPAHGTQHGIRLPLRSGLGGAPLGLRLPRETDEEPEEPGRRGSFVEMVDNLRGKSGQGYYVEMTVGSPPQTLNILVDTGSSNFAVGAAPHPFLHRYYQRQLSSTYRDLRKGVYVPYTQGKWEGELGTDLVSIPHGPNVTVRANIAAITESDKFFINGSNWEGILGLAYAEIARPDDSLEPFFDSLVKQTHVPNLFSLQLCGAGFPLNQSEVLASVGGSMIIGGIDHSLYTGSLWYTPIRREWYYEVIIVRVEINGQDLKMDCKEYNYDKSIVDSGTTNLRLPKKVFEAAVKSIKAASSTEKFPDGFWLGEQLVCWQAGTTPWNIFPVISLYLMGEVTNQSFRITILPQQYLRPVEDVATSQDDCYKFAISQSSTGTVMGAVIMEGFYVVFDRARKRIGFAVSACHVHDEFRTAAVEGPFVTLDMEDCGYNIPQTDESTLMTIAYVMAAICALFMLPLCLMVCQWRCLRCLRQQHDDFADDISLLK

[7] = molecular target: T1, Beta-secretase 2 (Homo sapiens, UniProt Q9Y5Z0); assay: Inhibition of BACE2 by FRET based peptide cleavage assay
T1 sequence (Q9Y5Z0 whole entry): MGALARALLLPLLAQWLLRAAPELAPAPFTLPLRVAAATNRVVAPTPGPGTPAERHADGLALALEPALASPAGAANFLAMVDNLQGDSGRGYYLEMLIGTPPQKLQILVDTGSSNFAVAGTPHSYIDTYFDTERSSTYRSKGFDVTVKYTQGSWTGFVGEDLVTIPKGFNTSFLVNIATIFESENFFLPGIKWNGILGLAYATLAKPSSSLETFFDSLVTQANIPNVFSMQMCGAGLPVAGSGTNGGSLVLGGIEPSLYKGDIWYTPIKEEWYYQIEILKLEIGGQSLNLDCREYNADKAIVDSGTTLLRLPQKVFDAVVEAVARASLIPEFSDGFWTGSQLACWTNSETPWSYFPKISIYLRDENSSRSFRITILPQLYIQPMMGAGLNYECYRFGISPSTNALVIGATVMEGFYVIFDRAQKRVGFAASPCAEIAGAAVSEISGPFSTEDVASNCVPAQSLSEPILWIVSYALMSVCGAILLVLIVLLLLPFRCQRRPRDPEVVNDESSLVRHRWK

[8] = molecular target: Cathepsin D (Homo sapiens, UniProt P07339); assay: Inhibition of cathepsin D by FRET based peptide cleavage assay
Cathepsin D, sequence (P07339 65-162 limits assumed): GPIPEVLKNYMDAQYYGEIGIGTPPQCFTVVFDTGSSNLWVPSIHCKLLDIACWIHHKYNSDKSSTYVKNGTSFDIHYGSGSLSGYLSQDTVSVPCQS
Cathepsin D, sequence (P07339 169-412 limits assumed): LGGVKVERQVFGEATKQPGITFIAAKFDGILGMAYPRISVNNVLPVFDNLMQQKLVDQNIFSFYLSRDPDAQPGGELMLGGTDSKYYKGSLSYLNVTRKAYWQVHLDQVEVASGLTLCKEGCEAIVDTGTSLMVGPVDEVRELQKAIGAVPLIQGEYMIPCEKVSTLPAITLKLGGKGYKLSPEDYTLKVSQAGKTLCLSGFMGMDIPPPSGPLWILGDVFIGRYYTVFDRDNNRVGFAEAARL

| IC50 [3] | Selectivity ratio [5] | IC50 [6] | IC50 [7] | IC50 [8] | Compound | Activity [1] | Activity [2] | EC50 [4] |
| --- | --- | --- | --- | --- | --- | --- | --- | --- |
| > 50 µM | – | – | – | – | CC(=O)c1ccc(Oc2ccc(-c3ccc(-c4ccccc4Cl)n3CC(=O)NC(=N)N)cc2)cc1 | – | – | 8.6 µM |
| – | > 50 | – | – | – | CCCOc1ccc(-c2ccc(-c3ccccc3Cl)n2CC(=O)/N=C(/N)NCCCO)cc1 | – | – | – |
| > 50 µM | > 50 | 0.24 µM | 3.5 µM | 19.4 µM | N/C(=N/C(=O)Cn1c(-c2ccccc2)ccc1C12CC3CC(CC(C3)C1)C2)NCCCO | – | – | 1.8 µM |

Second part, the compound before the results:

| Compound | IC50 [3] | Selectivity ratio [5] | IC50 [6] | IC50 [7] | IC50 [8] | Activity [1] | Activity [2] | EC50 [4] |
| --- | --- | --- | --- | --- | --- | --- | --- | --- |
| N=C(N)NC(=O)Cn1c(-c2ccccc2)ccc1-c1ccccc1 | > 50 µM | – | – | – | – | Dose-dependent effect | Dose-dependent effect | – |
| CCCOc1ccc(-c2ccc(-c3ccccc3Cl)n2CC(=O)NC(=N)NCCCO)cc1 | > 50 µM | – | 0.11 µM | 0.34 µM | 5.9 µM | – | – | – |
| NC(N)=NC(=O)Cn1c(-c2ccccc2)ccc1C12CC3CC(CC(C3)C1)C2 | > 50 µM | > 50 | 0.6 µM | 12.9 µM | 30.2 µM | – | – | 3.1 µM |
